{"source": "patent US8986652B2", "about": "“Method of preparing [123I]iodooctyl fenbufen amide and application thereof” (National Tsing Hua University, priority 2012, dated 2015)", "key": {"COX-1 [1]": {"target": "T1, COX-1 (Ovis aries, UniProt P05979)", "T1 construct": "purchased Cayman Chemical Ltd 760111", "T1 sequence (P05979 25-600)": "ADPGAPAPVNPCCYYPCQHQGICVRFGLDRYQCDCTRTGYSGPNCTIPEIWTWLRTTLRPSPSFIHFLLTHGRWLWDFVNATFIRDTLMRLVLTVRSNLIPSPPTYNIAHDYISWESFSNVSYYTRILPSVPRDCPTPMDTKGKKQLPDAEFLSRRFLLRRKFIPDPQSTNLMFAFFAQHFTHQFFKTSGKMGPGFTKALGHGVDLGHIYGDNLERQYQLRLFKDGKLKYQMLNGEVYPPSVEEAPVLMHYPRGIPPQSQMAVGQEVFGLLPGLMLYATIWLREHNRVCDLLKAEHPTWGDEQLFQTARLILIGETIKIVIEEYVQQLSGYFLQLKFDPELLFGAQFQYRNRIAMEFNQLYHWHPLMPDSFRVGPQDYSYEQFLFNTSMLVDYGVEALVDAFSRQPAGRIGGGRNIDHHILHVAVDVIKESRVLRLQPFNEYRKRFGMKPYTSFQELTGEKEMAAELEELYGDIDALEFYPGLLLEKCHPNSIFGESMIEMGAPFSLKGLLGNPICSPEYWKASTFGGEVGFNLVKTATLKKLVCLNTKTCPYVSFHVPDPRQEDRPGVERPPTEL", "experiment": "Colorimetric COX inhibitor screening assay (competitive inhibition of substrate transfer, CIST), COX-1", "type": "biochemical, ovine"}, "rat liver tumor lesion": {"system": "rat liver tumor lesion", "conditions": "cited from earlier work"}, "COX-1 [2]": {"target": "T1, COX-1", "experiment": "Radioligand binding assay by gel filtration HPLC, COX-1", "parameters": "species or system ovine", "conditions": "for Binding yield (bound conjugate, accumulated radioactivity fraction) with COX-1: 25° C., 15 min incubation, peak at 5 min / (5 min + 13.6 min)", "experimental": "(§1) The compound of formula 1 was purified by a set of HPLC consisting of the components of a Waters 510 pump, a linear UVIS detector (254 nm) in series with a Berthhold γ-flow detector, on a ZORBAX SIL column (250 mm×9.4 mm, 5 μm) at 3 mL/min with MeOH/CHCl3=1/99 as the mobile phase. Quality analysis of The compound of formula 1 was performed on the same HPLC setup as described above. The settings for radioactive ligand binding assay included a gel filtration column of TSKgel G3000PWx1 7.5×300 (mm) with a particle size of 10 μm which was purchased from Tosoh Bioscience LLC. The corresponding eluting conditions including PBS buffer and flow rate of 1 mL/min were employed throughout the experiment. The identity of The compound of formula 1 was confirmed with the compound of formula 2 on HPLC chromatogram after coinjection. The peak area of the UV absorbance at 254 nm that should correspond to the compound of formula 2 was calculated by interpolating to the standard curve relating mass to UV absorbance. Only a specific activity below 36 GBq/μmol can be measured accurately. Radioactive measurements were performed by a Capintec R15C dose calibrator.\n(§2) The binding experiment was carried out in an eppendorf (0.2 mL) and stood for 10 min for equilibrium. An aliquot (10 μL) was drawn from the commercial stock solution (200 μL). Additional 30 μL of tris buffer (0.1 M, pH=8.0) was added. The solution (40 μL) of COX-1 or COX-2 each was added into a tris buffer (50 μL) together with the addition of a solution of the radiotracer the compound of formula 1 in EtOH with concentration ranging from 66 μCi/10 μL to 70 μCi/10 μL. The whole mixture (100 μL) was incubated at 25° C. for 15 min followed by submission to purification using HPLC. PBS buffer (0.1 M, pH=7.3) was employed as the eluent and the flow rate was set to be 1 mL/min.\n(§3) The assay was based on that the retention time of the bound complex between radiolabeled ligand and enzyme was different from that of the unbound ligand in HPLC. […]"}, "[3]": {"system": "thioacetamide-induced cholangiocarcinoma (CCA) rat", "experiment": "SPECT/CT imaging in normal rat and thioacetamide-induced cholangiocarcinoma (CCA) rat", "type": "in vivo", "conditions": "tail vein", "experimental": "All in vivo experiments were performed in compliance with the Taiwan National Health and Medical Research Council (NHMRC) Code of Practice for the care and use of animals for scientific purposes. Male-, Sprague-Dawley (SD) rats ([…]) were obtained from the Animal Research Center (Chang-Gung Memorial Hospital, Taiwan). Rats were housed under constant environmental conditions and were allowed free access to food and water throughout the experimental period. In vivo studies were performed in a thioacetamide-induced cholangiocarcinoma (CCA) rat (37th week post administration) along with a normal rat as a control.\nThe rats were anaesthetized via inhalant isoflurane (Forthane, Abott) in 200 mL/min oxygen during the imaging study. […]\nThe compound of formula 1 (0.76 mCi/1 mL) was administered by the CCA rat via tail vein injection to obtain a summation of one-hour Single Photon Emission Computer Tomography (SPECT) imaging data (FIG. 4(A)). The normal rat was injected with the residual radioactivity of the compound of formula 1 (1.39 mCi/1 mL) (FIG. 4 (B)). All in vivo experiments were performed in compliance with the NHMRC Taiwan Code of Practice for the care and use of animals for scientific purposes, and the raw data from the image further analyzed by Preclinical Multi-Modality Data Analysis software (PMOD Technologies Ltd, Zurich, Switzerland)."}, "COX-2 [4]": {"target": "T2, COX-2 (Ovis aries, UniProt P79208)", "T2 construct": "purchased Cayman Chemical Ltd 760111", "T2 sequence (P79208 17-603)": "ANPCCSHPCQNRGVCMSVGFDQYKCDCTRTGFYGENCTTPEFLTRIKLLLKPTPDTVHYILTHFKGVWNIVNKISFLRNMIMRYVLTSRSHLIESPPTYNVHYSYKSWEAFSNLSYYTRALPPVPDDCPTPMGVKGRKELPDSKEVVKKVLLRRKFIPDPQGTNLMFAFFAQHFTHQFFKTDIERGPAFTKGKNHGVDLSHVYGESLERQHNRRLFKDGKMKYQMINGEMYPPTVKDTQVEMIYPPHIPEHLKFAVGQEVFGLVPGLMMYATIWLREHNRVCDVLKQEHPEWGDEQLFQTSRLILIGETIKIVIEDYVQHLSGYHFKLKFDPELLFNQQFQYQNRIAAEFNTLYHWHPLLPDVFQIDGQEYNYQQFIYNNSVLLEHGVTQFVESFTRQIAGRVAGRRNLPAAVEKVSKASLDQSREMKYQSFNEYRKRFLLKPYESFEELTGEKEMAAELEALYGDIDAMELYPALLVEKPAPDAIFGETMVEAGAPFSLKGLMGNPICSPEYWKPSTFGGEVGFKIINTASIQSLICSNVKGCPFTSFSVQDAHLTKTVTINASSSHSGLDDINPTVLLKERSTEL", "experiment": "Radioligand binding assay by gel filtration HPLC, COX-2", "parameters": "species or system ovine", "conditions": "for Binding yield (bound conjugate, accumulated radioactivity fraction) with COX-2: 25° C., 15 min incubation, peak at 5 min / (5 min + 13.6 min)", "experimental": "as §1, §2, §3"}, "COX-2 [5]": {"target": "T2, COX-2", "experiment": "Colorimetric COX inhibitor screening assay (competitive inhibition of substrate transfer, CIST), COX-2", "type": "biochemical", "conditions": "colorimetric COX (ovine) kit; read-out: IC50 value COX-2, this assay"}, "COX-1 [6]": {"target": "COX-1 (Homo sapiens, UniProt P23219)", "sequence (P23219 24-599)": "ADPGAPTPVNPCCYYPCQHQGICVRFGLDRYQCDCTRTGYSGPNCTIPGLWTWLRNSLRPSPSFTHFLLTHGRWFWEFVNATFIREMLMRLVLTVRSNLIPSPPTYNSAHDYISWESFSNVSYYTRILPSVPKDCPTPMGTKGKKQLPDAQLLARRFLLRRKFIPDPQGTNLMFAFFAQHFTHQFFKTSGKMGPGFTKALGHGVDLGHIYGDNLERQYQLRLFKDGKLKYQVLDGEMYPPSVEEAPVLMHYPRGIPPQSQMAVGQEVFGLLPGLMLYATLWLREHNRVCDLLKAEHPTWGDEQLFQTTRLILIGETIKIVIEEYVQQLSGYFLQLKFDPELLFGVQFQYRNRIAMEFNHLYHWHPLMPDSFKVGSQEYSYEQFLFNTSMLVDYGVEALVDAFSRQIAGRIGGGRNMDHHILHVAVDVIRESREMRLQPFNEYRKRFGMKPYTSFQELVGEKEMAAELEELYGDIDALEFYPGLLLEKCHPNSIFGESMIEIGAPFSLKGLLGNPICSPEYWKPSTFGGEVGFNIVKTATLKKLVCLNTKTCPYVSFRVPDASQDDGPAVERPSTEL", "conditions": "read-out: IC50 value COX-1, lit. data; literature data; cited from earlier work"}, "COX-2 [7]": {"target": "T3, COX-2 (Homo sapiens, UniProt P35354)", "T3 sequence (P35354 18-604)": "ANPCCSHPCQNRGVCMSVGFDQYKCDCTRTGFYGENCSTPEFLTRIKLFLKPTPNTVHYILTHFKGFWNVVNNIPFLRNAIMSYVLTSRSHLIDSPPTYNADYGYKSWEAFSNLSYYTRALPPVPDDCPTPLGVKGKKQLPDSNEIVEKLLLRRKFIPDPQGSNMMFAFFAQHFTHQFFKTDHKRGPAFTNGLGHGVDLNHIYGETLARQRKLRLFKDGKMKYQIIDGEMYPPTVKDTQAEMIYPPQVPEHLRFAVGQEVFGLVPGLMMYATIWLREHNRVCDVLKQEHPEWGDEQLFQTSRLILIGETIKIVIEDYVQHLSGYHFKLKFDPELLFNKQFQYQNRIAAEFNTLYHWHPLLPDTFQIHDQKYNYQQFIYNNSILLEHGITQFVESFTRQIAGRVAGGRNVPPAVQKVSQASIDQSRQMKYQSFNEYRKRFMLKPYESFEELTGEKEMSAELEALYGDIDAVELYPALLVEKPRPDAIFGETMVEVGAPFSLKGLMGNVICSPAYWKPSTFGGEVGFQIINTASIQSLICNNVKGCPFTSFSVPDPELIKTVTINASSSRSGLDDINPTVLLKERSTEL", "conditions": "read-out: IC50 value COX-2, lit. data; literature data; cited from earlier work"}, "NO": {"system": "NO", "conditions": "antioxidant (e.g. NO) assay; cited from earlier work"}, "[8]": {"conditions": "colorimetric COX (ovine) kit, read-out: IC50 value COX-1, this assay"}}, "note": "Where two headings read alike, the source gives them in different places."}
{"compound": "Oc1ccc(C=Cc2cc(O)cc(O)c2)cc1", "note": "[Resveratrol]", "values": [{"measurement": "IC50", "setting": "COX-1 [1]", "value": 3.9, "unit": "µM"}]}
{"compound": "C=C(CC)C(=O)c1ccc(OCC(=O)NCCCC[18F])c(Cl)c1Cl", "note": "[[^18F]FBuEA, [^18F]-N-(4-fluorobutyl)ethacrynic amide]", "values": [{"measurement": "Image of tumor lesion", "setting": "rat liver tumor lesion", "value": "only shows the image of cold spot"}]}
{"compound": "CCCCCCCCNC(=O)CCC(=O)c1ccc(-c2ccc([123I])cc2)cc1", "note": "[compound of formula 1, 4-(4′-[^123I]iodobiphenyl-4-yl)-N-octyl-4-oxobutanamide]", "values": [{"measurement": "Binding yield (bound conjugate, accumulated radioactivity fraction) with COX-1", "setting": "COX-1 [2]", "value": 56, "unit": "%"}, {"measurement": "Intact (unbound) form remained, COX-1 binding experiment", "setting": "COX-1 [2]; peak at 13.6 min", "value": 44, "unit": "%"}, {"measurement": "In-vivo distribution of radioactivity, SPECT", "setting": "[3]; CCA tumor rat, 0.76 mCi/1 mL", "value": "a heterogeneous radioactivity accumulation was addressed in the liver"}, {"measurement": "In-vivo distribution of radioactivity, SPECT", "setting": "[3]; normal rat, 1.39 mCi/1 mL, 30 mins post administration", "value": "a homogeneous pattern, which was localized mainly in the liver and partly in the heart"}, {"measurement": "Binding yield (bound conjugate, accumulated radioactivity fraction) with COX-2", "setting": "COX-2 [4]", "value": 79, "unit": "%"}, {"measurement": "Intact (unbound) form remained, COX-2 binding experiment", "setting": "COX-2 [4]; peak at 13.6 min", "value": 21, "unit": "%"}]}
{"compound": "CCCCCCCCNC(=O)CCC(=O)c1ccc(-c2ccc(I)cc2)cc1", "note": "[compound of formula 2, 4-(4′-iodobiphenyl-4-yl)-n-octyl-4-oxobutanamide]", "values": [{"measurement": "Binding yield (bound conjugate, accumulated radioactivity fraction) with COX-1", "setting": "COX-1 [2]", "value": 56, "unit": "%"}, {"measurement": "IC50", "setting": "COX-2 [5]", "value": "> 10", "unit": "µM"}, {"measurement": "IC50", "setting": "COX-1 [1]; [8]", "value": "> 10", "unit": "µM"}, {"measurement": "melting point", "value": "181 to 182", "unit": "°C"}, {"measurement": "Binding yield (bound conjugate, accumulated radioactivity fraction) with COX-2", "setting": "COX-2 [4]", "value": 76, "unit": "%"}]}
{"compound": "O=C(O)CCC(=O)c1ccc(-c2ccccc2)cc1", "note": "[fenbufen]", "values": [{"measurement": "IC50", "setting": "COX-1 [6]", "value": 3.9, "unit": "µM"}, {"measurement": "IC50", "setting": "COX-2 [5]", "value": "> 10", "unit": "µM"}, {"measurement": "IC50", "setting": "COX-2 [7]", "value": 8.1, "unit": "µM"}, {"measurement": "IC50", "setting": "COX-1 [1]; [8]", "value": "> 10", "unit": "µM"}]}
{"compound": "O=c1ccn([C@@H]2O[C@H](CO)[C@@H](O)[C@H]2O)c(=O)[nH]1", "note": "[uridine]", "values": [{"measurement": "IC50", "setting": "COX-2 [5]", "value": "> 10", "unit": "µM"}, {"measurement": "IC50", "setting": "COX-1 [1]; [8]", "value": "> 10", "unit": "µM"}]}
{"compound": "Octyl fenbufen amide [OFA]", "values": [{"measurement": "Anti inflammatory effect", "setting": "NO", "value": "marginal"}]}
